Reference: US20120321571A1, “PARABEN COMPOSITIONS” (ANTERIOS, INC., priority 2011, published 2012)

System: axillary sweating
Assay: Clinical study of the effect of Propylparaben on axillary sweating (gravimetric sweat measurement)
Format: in vivo, human

Structure (SMILES): CCCOC(=O)c1ccc(O)cc1 [Propylparaben]
- greater effectiveness in reducing sweat production than placebo (by responder assessment) (based on percent of subjects with at least 30% reduction versus Baseline, versus placebo (water)): 245%
- conclusion on activity in reducing sweat production (overall conclusion of the clinical study): biologically active in reducing sweat production
- reduction in sweat production (average), gravimetric sweat measurement (subjects with moderate to severe primary axillary hyperhidrosis, single topical treatment, 0.20 mg per axilla, two weeks after treatment, 5 minute collection): 177 mg
- percent of subjects with at least a 30% reduction in sweat production compared to Baseline (two weeks after single topical treatment, 0.20 mg per axilla, gravimetric sweat measurement): 70%
- greater reduction in sweat production than the control (placebo) group (two weeks after single topical treatment, 0.20 mg per axilla, versus placebo (water)): 337%
